{"source": "patent EP1306084A1", "about": "“Compositions for the control of parasitic infestations in fish” (Alpharma AS, priority 1998, dated 1999)", "key": {"[1]": {"test_system": "sea lice", "assay": "Oral or bath treatment in freshwater before sea transfer, sea lice counts after natural infection (Example 5)", "type": "in vivo, sea trout (Salmo trutta)", "conditions": "oral 4 mg per kg daily for 5 days or bath 5 ppm for 30 minutes", "experimental": "The treatment dosage was 9 mg hexaflumuron per kg fish per day for 10 days. This is indicated by \"Groups/Timepoints\" in the figure; • Figure 2 relates to the trial in Example 2 that was carried out on Atlantic salmon (Salmo salar). […] The treatment dosage varied between 3 - 9 mg hexaflumuron and 9- 12 mg fluazuron per kg fish per day for 7 days. This is indicated by \"Groups/Timepoints\" in the diagram. […] The treated groups are compared to an untreated control group. The treatment dosage was 4 mg hexaflumuron per kg fish per day for 5 days. This is indicated by \"Groups/Timepoints\" in the figure. Cage 2 = controls, Cage 4-6 = treated groups, 16.6.97 = time point for sea transfer and 5.8.97= controls treated by bathing with deltamethrin; • Figure 4 relates to the trial described in Example 5, which was carried out on sea trout (Salmo trutta). […] The treated groups are compared with an untreated control group. The dosage for oral treatment was 4 mg hexaflumuron per kilo fish per day for 5 days, and 5 ppm hexaflumuron as a 30 minute bath treatment. This is indicated by \"Groups/Timepoints\" in the figure. Cage 1.4 = Controls, cage 1.3 = Oral treatment, cage 1.2 = Bath treatment. […] The treated groups are compared with an untreated control group, and one group that has been treated orally with teflubenzuron (10 mg/kg of teflubenzuron per kg fish per day for 7 days). The dosage for oral treatment was 5.6 mg hexaflumuron per kg fish per day for 7 days, and 5 ppm hexaflumuron as a 30 minute bath treatment. […] End of treatment: 22.10.97, Sea transfer: 23.10.97. T1 = 3 weeks post end of treatment, T2 = 5 weeks post end of treatment, T3 = 9 weeks post end of treatment, T4 = 12 weeks post end of treatment; • Figure 6 relates to the trial in Example 6 at time points 4-6, with the same trial parameters as for Figure 5. […]\nAbout 300 sea trout (Salmo trutta) of an average weight of 160 grams were divided into three groups of 100 fish each. […] Lice from 6-10 fish from each cage were counted every third week to assess whether there was any difference in the number of lice between the cages. […]"}, "[2]": {"assay": "Specific growth rate after sea transfer (Example 5)", "type": "in vivo, sea trout (Salmo trutta)", "conditions": "treated groups (oral, bath), after about 13 weeks; control group 0.37%", "experimental": "About 300 sea trout (Salmo trutta) of an average weight of 160 grams were divided into three groups of 100 fish each. One group was given oral treatment for one week before they were transferred to sea at a daily dosage of 4 mg hexaflumuron per kg fish for 5 days. The second group was treated with a bath treatment using a dosage of 5 ppm hexaflumuron for 30 minutes with a formulation containing 10% hexaflumuron, while the last group remained untreated. The treatments were carried out in fresh water during the last week before the fish were transferred to sea water. In the sea water, the fish were distributed into 3 mini-cages with 100 fish in each. The fish were then exposed to natural sea lice infection. Lice from 6-10 fish from each cage were counted every third week to assess whether there was any difference in the number of lice between the cages. At the end of the trial, i.e. about 13 weeks after the fish had been transferred to sea, the fish in each cage were weighed to check possible differences in SGR. The water temperature varied within the range of 12 - 22°C during the trial.\nAfter 11 weeks there was no difference between the groups, but the number of lice was very low in all groups, which makes it difficult to determine the length of the protection period. […] The SGR was determined after about 13 weeks. […]"}, "[3]": {"assay": "Chemical analysis of muscle/skin tissue after oral treatment (Example 6)", "type": "in vivo, Atlantic salmon (Salmo salar)", "conditions": "atlantic salmon, 5.6 mg/kg, five fish, read-out: average concentration of hexaflumuron in muscle/skin tissue", "experimental": "Two days after oral treatment had been completed and at timepoint 3 (65 days after completed medication), muscle/skin tissue from five fish in group 1 was chemically analysed to check the concentration of hexaflumuron. The average concentration of hexaflumuron two days after completed medication was 4.4 µg/g tissue. 65 days after, the average concentration level was 1.2 µg/g tissue."}}}
{"smiles": "O=C(NC(=O)c1c(F)cccc1F)Nc1cc(Cl)c(OC(F)(F)C(F)F)c(Cl)c1", "note": "[hexaflumuron]", "values": [{"measurement": "protection after transfer to sea", "setting": "[1]", "result": "at least 8 weeks"}, {"measurement": "number of lice larger than Chalimus II versus control", "setting": "[1]; 2, 5 and 8 weeks after sea transfer", "result": "significantly lower"}, {"measurement": "SGR", "setting": "[2]", "result": "0.84 - 0.98%"}, {"measurement": "concentration at 1560 h", "setting": "[3]; 65 days after completed oral medication", "result": 1200, "unit": "ng/g"}, {"measurement": "concentration at 48 h", "setting": "[3]; two days after completed oral medication (5.6 mg per kg, 7 days)", "result": 4400, "unit": "ng/g"}]}
